Results as given in PMC4710522, “A Novel Triazolopyridine-Based Spleen Tyrosine Kinase Inhibitor That Arrests Joint Inflammation” (PLoS ONE, 2016).

How the values were obtained:
[1] = tested on: proinflammatory analytes in paw tissue; experiment: inflammatory cytokines measured in the paw, rat CIA; assay type: in vivo
Protocol: Following the last administration of CC-509, paw samples were collected and processed for cytokine and chemokine analysis (Aushon Biosciences, Billerica, MA). Briefly paws were snap-frozen and pulverized in liquid nitrogen followed by addition of cell signal lysis buffer in the presence of protease and phosphatase inhibitors (Sigma Chemicals, St. Louis, MO). Samples were homogenized on high speed for 30 seconds, incubated on ice for 20 minutes then sonicated at high intensity for 1 minute. Samples were spun at high speed and supernatants were collected for cytokine analysis.

Aurora A = target: T1, Aurora A (Homo sapiens, UniProt O14965); experiment: Aurora A IMAP TR-FRET assay; assay type: biochemical; conditions: in-house, mean ± SD
T1 construct: purchased Millipore 14-511
T1 sequence (O14965 whole entry): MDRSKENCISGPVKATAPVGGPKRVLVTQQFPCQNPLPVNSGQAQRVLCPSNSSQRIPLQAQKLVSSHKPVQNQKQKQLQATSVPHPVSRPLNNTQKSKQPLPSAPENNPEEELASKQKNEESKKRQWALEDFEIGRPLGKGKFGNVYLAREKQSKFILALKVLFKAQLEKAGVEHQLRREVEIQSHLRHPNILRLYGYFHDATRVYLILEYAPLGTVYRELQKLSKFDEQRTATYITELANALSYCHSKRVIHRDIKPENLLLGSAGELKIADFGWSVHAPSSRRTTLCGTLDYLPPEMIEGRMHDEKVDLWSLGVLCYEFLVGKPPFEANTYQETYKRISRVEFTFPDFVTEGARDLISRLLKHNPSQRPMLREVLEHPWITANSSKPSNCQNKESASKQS

[2] = tested on: rat passive cutaneous anaphylaxis model; experiment: rat passive cutaneous anaphylaxis (PCA) model; assay type: in vivo
Protocol: On day 0, male CD-IGS rats (170 – 190g; Charles River Laboratories) were anesthetized with isofluorane, their dorsal region shaved and 50 μl Anti-DNP-IgE (Clone SPE-7, Sigma, St. Louis, MO) that had been diluted 1:1000 in saline was injected via the intradermal route at 3 individual spots along the right side of the back. Saline was injected via the intradermal route at 3 individual spots along the left side of the back as a sham control. Twenty-four hours later, 200 μl of BSA-DNP (Calbiochem, San Diego, CA), prepared (1 mg prepared in a 2% solution of Evans blue dye: Sigma Chemicals, St. Louis, MO) was injected via the IV route via the tail vein. Thirty minutes after the BSA-DNP challenge the experiment was terminated and skin samples from the middle of each injection site taken for Evans blue dye measurement at an OD measurement at 620nm on a plate reader following incubation (2h at 90°C) and homogenization in formamide (Sigma Chemicals, St. Louis, MO). Vehicle (20% Captisol® (Captisol), PO), the positive control (Cromolyn: Sigma Chemicals, St. Louis, MO 100mg/kg, 2mL/kg, IV) or CC0484509 (3 and 10mg/kg, PO) were dosed 1h prior to the IV challenge with BSA-DNP.
For the TEL-Syk assay, the intensity values for the 700 and 800 channel were exported as text files in ActivityBase (IDBS, Guildford, UK) to derive the ratios that reflect kinase activity. For LAD2 experiments, enzyme activity values were exported as text files into ActivityBase to calculate “percent release” according to the formula: 100* supernatant OD405/ (supernatant OD405 + (pellet OD405*pellet dilution factor)). For the basophil and B-cells assays, flow cytometry data was exported from the FACS Array and processed using FloJo software package (TreeStar, Inc., Ashland, Oregon). For the JAK2 HEL and Ramos NFAT β-lactamase assays, the fluorescence values obtained at 460 nm and 530 nm were exported into ActivityBase to calculate response ratios. For the neutrophil, macrophage, KDR, and JAK1/3 assays, raw values were exported into ActivityBase to calculate percent inhibition. All IC50 calculations were generated using XLfit (IDBS, Guildford, UK) algorithm 205 within Excel. For PCA, the OD from the saline injected site was subtracted from the OD from the anti-DNP IgE injected site. Evans blue dye extravasation was expressed as mean ± SEM and % inhibition for the test article groups was normalized to the cromolyn positive control. For the CIA model paw measurements (left and right ankle diameter) were taken for each individual animal and averaged. The mean data from each group was plotted and either the AUC(day 11–18) or % inhibition on day 18 was calculated. Data is expressed as mean ± SEM of each group with n = 6–12. […]

Ret_V804L_h = target: T2, Ret_V804L_h (Homo sapiens, UniProt P07949, V804L); experiment: SelectScreen kinase assay; assay type: biochemical; conditions: KM ATP, read-out: % control
T2 construct: purchased Life Technologies (Invitrogen) SelectScreen, Z'-LYTE / Adapta
T2 sequence (P07949 29-1114 V804L): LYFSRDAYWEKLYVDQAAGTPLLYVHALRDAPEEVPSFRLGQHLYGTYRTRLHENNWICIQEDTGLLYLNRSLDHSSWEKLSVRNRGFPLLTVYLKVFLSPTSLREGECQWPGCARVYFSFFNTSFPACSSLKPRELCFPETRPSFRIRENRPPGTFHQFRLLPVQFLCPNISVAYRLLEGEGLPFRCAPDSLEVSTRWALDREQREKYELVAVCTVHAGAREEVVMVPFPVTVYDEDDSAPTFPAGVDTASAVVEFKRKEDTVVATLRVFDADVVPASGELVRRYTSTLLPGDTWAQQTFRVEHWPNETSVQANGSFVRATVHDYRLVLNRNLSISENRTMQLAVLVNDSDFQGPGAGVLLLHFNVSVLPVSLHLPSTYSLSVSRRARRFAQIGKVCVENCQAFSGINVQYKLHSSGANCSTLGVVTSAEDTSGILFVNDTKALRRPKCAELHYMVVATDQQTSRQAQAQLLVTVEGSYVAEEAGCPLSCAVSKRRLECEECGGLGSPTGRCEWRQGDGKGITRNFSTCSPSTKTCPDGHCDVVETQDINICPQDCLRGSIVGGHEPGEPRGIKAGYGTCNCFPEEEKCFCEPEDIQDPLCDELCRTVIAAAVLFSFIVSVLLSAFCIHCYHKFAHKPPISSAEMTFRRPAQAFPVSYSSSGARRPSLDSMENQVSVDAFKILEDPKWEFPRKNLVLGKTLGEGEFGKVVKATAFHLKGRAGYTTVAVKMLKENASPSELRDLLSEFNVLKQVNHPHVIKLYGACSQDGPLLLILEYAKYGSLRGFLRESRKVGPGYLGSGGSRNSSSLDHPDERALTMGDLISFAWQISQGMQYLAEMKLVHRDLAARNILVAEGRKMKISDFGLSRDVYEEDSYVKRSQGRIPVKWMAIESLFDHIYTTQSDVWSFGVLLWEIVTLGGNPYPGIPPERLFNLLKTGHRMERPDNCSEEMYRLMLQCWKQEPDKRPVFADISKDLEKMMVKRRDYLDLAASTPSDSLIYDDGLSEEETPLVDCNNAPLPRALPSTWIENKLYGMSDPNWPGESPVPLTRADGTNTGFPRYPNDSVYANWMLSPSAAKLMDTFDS

NEK7_h = target: T3, NEK7_h (Homo sapiens, UniProt Q8TDX7); experiment: SelectScreen kinase assay; assay type: biochemical; conditions: KM ATP, read-out: % control
T3 construct: purchased Life Technologies (Invitrogen) SelectScreen, Z'-LYTE / Adapta
T3 sequence (Q8TDX7 whole entry): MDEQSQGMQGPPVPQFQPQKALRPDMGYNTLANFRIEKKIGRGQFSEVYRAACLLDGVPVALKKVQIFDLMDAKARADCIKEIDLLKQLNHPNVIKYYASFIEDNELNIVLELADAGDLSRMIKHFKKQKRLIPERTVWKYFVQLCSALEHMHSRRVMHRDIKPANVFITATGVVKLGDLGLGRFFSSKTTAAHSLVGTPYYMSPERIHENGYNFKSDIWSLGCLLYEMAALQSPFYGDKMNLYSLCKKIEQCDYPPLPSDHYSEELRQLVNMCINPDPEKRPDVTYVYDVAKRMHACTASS

KDR = target: T4, KDR (Homo sapiens, UniProt P35968); experiment: KDR HTRF assay; assay type: biochemical; conditions: in-house, mean ± SD
T4 construct: purchased Life Technologies PV3660
T4 sequence (P35968 20-1356): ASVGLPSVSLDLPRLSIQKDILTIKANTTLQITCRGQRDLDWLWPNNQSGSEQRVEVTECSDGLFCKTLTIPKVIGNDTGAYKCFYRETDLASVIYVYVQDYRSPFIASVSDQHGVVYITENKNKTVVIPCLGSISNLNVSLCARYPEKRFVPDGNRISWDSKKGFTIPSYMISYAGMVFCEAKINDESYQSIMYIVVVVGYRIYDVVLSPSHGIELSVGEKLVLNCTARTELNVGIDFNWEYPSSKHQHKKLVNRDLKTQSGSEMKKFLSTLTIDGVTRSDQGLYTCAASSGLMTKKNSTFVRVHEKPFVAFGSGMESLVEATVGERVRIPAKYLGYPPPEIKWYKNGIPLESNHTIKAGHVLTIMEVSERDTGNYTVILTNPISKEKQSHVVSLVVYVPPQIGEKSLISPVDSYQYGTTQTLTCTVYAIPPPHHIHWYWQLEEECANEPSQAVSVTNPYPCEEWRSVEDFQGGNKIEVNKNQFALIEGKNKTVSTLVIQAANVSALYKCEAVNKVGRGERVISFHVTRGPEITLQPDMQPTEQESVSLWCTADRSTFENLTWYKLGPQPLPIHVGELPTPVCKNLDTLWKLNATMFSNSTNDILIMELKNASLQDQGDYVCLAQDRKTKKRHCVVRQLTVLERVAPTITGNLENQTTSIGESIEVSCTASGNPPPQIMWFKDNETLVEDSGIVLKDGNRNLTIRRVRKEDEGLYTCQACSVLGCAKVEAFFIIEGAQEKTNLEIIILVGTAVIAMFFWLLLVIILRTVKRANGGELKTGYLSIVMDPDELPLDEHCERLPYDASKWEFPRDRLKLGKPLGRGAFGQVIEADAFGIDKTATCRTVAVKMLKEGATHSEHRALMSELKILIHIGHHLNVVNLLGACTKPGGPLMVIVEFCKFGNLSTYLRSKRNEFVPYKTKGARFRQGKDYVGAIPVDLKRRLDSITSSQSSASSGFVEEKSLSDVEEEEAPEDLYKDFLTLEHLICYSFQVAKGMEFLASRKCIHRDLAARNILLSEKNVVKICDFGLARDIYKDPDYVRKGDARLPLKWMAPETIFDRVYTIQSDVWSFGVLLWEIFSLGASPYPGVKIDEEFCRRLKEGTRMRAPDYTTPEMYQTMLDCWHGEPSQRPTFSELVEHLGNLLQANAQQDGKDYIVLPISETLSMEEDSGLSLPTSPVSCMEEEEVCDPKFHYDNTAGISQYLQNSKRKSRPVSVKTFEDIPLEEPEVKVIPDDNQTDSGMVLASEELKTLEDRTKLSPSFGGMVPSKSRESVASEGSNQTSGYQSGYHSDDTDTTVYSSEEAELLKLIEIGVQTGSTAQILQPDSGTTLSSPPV
Protocol: CC-509 was prepared at a concentration of 1.5 mM in DMSO followed by 3-fold dilutions in Greiner […] polypropylene plates. A 1:4 dilution of compounds by 8 μL/well transfer from the polypropylene plates to 24 μL/well Assay Buffer (50 mM HEPES pH 7.6, 1 mM DTT, 10 mM MgCl2, 0.01% Triton X-100, 0.01% BSA and 0.1 mM EDTA) in Costar 3573 384 well black plates was then performed. Kinase (13 μL/well of 7.7 ng/ml KDR (Life Technologies, Grand Island, NY PV3660) in Assay Buffer) or Assay Buffer only (background controls) were added to Costar 3573 384-well black plates and compound (2 μL/ well) was added from the 1:4 dilution plate. […] Time resolved fluorescence was read in assay plates on a PerkinElmer EnVision. […] The IC50 value was determined as described in the data fitting section below.
For the TEL-Syk assay, the intensity values for the 700 and 800 channel were exported as text files in ActivityBase (IDBS, Guildford, UK) to derive the ratios that reflect kinase activity. […] For the JAK2 HEL and Ramos NFAT β-lactamase assays, the fluorescence values obtained at 460 nm and 530 nm were exported into ActivityBase to calculate response ratios. […] Evans blue dye extravasation was expressed as mean ± SEM and % inhibition for the test article groups was normalized to the cromolyn positive control. […] Data is expressed as mean ± SEM of each group with n = 6–12. […]

[3] = target: T5, human ether-à-go-go-related Gene (hERG) channel (Homo sapiens, UniProt Q12809); experiment: non-GLP manual patch clamp hERG assay (ChanTest); assay type: cell-based; conditions: data not shown
T5 construct: ChanTest (contract assay)
T5 sequence (Q12809 whole entry): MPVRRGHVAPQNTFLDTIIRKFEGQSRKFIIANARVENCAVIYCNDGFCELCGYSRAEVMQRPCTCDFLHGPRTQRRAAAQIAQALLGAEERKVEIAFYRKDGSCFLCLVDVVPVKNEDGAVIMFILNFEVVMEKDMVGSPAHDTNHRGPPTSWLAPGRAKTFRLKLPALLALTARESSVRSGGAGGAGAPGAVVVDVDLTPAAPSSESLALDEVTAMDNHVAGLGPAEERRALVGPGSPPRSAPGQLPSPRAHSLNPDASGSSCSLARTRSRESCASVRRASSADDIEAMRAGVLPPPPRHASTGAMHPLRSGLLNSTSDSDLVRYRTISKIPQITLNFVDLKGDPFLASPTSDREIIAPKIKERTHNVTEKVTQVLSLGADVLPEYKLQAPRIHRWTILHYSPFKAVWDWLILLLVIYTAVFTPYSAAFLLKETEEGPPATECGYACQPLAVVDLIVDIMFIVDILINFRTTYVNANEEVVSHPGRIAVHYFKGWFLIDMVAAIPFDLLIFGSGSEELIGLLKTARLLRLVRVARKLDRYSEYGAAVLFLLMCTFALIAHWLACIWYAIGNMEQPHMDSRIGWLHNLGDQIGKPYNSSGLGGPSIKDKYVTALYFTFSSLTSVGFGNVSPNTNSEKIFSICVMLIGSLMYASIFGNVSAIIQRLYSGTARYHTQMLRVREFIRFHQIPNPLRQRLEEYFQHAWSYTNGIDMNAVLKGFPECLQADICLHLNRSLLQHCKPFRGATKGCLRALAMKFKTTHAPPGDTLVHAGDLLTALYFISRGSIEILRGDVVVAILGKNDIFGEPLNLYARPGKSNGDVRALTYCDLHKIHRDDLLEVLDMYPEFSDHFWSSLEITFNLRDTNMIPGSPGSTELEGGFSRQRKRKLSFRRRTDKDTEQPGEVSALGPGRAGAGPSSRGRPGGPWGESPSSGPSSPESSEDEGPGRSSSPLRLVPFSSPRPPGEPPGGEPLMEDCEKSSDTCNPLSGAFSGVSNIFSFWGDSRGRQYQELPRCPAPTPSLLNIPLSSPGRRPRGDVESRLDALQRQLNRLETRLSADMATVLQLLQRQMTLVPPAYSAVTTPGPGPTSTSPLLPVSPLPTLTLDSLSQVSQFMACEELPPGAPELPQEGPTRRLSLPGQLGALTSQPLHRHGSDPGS
Protocol: Syk kinase mode of inhibition studies, including parameters described in Fig 1, were conducted on the LC3000 platform by Caliper Life Sciences (Hopkinton, MA) according to standard protocols developed by the supplier. […] Non-kinase enzyme assays and GPCR, ion channel, and transporter binding assays were run by CEREP (France). Non-GLP manual patch clamp hERG assays were run by ChanTest (Cleveland, Ohio). Vivid® Assay kits (Life Technologies) were used to measure the cytochrome P450 inhibition of the compound against CYP3A, CYP2C9, CYP2C19, CYP2D6, and CYP1A2, as described.

Compound: c1cc(CC2CCOCC2)n2nc(Nc3ccc4c(NC5CCOCC5)n[nH]c4c3)nc2c1 [CC-509, [3-(2H-3,4,5,6-tetrahydropyran-4-ylamino)(1H-indazol-6-yl)][5-(2H-3,4,5,6-tetrahydropyran-4-ylmethyl)(2H-1,2,4-triazolo[1,5-a]pyridin-2-yl)]amine]
- other proinflammatory analytes in the paw (IL-1β, IL-6, CRP) ([1]; day 18): No other significant effects
- MCP-1 in the paw ([1]; day 18, 15 mg/kg q.d. and b.i.d. groups, p<0.01): significantly reduced
- RANTES in the paw ([1]; day 18, all CC-509 dose levels, p<0.001): significantly reduced
- KC in the paw ([1]; day 18, only in the 15 mg/kg b.i.d. group, p<0.05): reduced
- MIP-1α in the paw ([1]; day 18, CC-509 all dose levels p<0.01, indomethacin p<0.05): significantly reduced
- IC50 (Aurora A): 0.22 ± 0.05 µM
- inhibition of skin edema, normalized to cromolyn ([2]; 3 mg/kg PO, not statistically significant): 26%
- inhibition of skin edema, normalized to cromolyn ([2]; 10 mg/kg PO, p<0.01): 81%
- ED50 ([2]; Rattus norvegicus, PCA model, dye extravasation): ~5 mg/kg
- remaining activity at 3 µM (Ret_V804L_h): 22%
- remaining activity at 3 µM (NEK7_h): 102%
- IC50 (KDR): 0.15 ± 0.03 µM
- inhibition of hERG channel activity [3]: did not inhibit
